Measured values: patent US12281139B2, “Mogrosides, methods of obtaining the same, and uses” (The Coca-Cola Company, priority 2018, dated 2025)

What was measured:
Assay type in all cases: in vivo
[1] = Sensory evaluation of CC-00367 and CC-00371 vs Reb M 95% (trained sensory panel taste test, mock beverage samples, 400 ppm in water at 4° C.); conditions: mean panel score; for Bitter Aftertaste Intensity: bitter intensity 1 minute after tasting; for Overall Max Sweetness: from the time the sip is taken up to 1 minute; for Bitter Intensity In Mouth: maximum level of bitterness in mouth during 5 seconds; for Sweet Intensity In Mouth: maximum level of sweetness in mouth during 5 seconds; for Sweet Linger Intensity: sweet intensity 1 minute after tasting
Procedure: FIG. 1: Taste attribute comparison of CC-00371 and CC-00367 compared to Reb M 95% (all at 400 ppm) in water at 4° C.
(§1) The following mock beverage samples were prepared:
(§2) A trained sensory panel conducted the taste test. Samples were served at approximately 4° C. Panelists were instructed to take 1 sip of the sample, hold in mouth for 5 seconds, expectorate, and rate the given attributes. A 5 minute break was placed between each sample and panelists were instructed to cleanse their palates with at least 1 bite of unsalted cracker and 2 sips of filtered water. Samples were randomized within each session for each panelist.
(§3) The following attributes were evaluated: • Sweet taste intensity: maximum level of sweetness in mouth during 5 seconds • Bitter taste intensity: maximum level of bitterness in mouth during 5 seconds • Overall maximum sweet intensity: maximum sweet intensity experienced from the time the sip is taken up to 1 minute • Overall maximum bitter intensity: maximum sweet intensity experienced from the time the sip is taken up to 1 minute • Sweet linger intensity: sweet intensity 1 minute after tasting the sample • Bitter aftertaste intensity: bitter intensity 1 minute after tasting the sample
(§4) An ANOVA, with Sample as fixed effects and Panelist as random effects was used to determine significance between the samples for each attribute at the 90% and 95% Confidence Level, two-tailed. Fishers LSD was used to determine significant differences between mean scores.
The results are shown in Table 75 and depicted in FIG. 1: […]

[2] = as above; conditions: mean panel score, from the time the sip is taken up to 1 minute
[3] = Sensory evaluation of CC-00401 and CC-00403 vs 7% Sucrose (trained sensory panel taste test, mock beverage samples at 4° C.); set-up: Sweetness In Mouth / Sweetness Overall Max / Bitterness In Mouth / Bitterness Overall Max: scale not given here; conditions: mean ± standard deviation, test sweeteners 400 ppm in water, reference 7% sucrose
Procedure: as §1, §2, §3, §4

[4] = Sensory evaluation of CC-00436 vs 5% Sucrose (trained sensory panel taste test, mock beverages at 4° C.); set-up: Sweetness In Mouth / Sweetness Overall Max / Bitterness In Mouth / Bitterness Overall Max: scale not given here; conditions: mean ± standard deviation, CC-00436 400 ppm in water, reference 5% sucrose
Procedure: The following mock beverages were prepared: A trained sensory panel conducted the taste test. Samples were served at approximately 4° C. Panelists were instructed to take 1 sip of the sample, hold in mouth for 5 seconds, expectorate, and rate the given attributes. A 5 minute break was placed between each sample and panelists were instructed to cleanse their palates with at least 1 bite of unsalted cracker and 2 sips of filtered water. Samples were randomized within each session for each panelist. The following attributes were evaluated: • Sweet taste intensity: maximum level of sweetness in mouth during 5 seconds • Bitter taste intensity: maximum level of bitterness in mouth during 5 seconds • Overall maximum sweet intensity: maximum sweet intensity experienced from the time the sip is taken up to 1 minute • Overall maximum bitter intensity: maximum sweet intensity experienced from the time the sip is taken up to 1 minute • Sweet linger intensity: sweet intensity 1 minute after tasting the sample • Bitter aftertaste intensity: bitter intensity 1 minute after tasting the sample

Compound	Bitter Aftertaste Intensity [1]	Overall Max Sweetness [1]	Bitter Intensity In Mouth [1]	Sweet Intensity In Mouth [1]	Sweet Linger Intensity [1]	Overall Max Bitterness** [2]	Bitterness In Mouth [3]	Bitterness Linger (~60 sec) [3]	Bitterness Overall Max [3]	Sweetness In Mouth [3]	Sweetness Linger (~60 sec) [3]	Sweetness Overall Max [3]	Bitterness In Mouth [4]	Bitterness Linger (~60 sec) [4]	Bitterness Overall Max [4]	Sweetness In Mouth [4]	Sweetness Linger (~60 sec) [4]	Sweetness Overall Max [4]
C[C@H](CC[C@@H](O[C@@H]1OC(CO[C@@H]2OC(CO)[C@@H](O)[C@H](O)C2O)C(O)[C@@H](O)C1O[C@@H]1OC(CO)[C@@H](O[C@@H]2OC(CO)[C@@H](O)[C@H](O)C2O)[C@H](O)C1O)C(C)(C)O)[C@H]1CC[C@@]2(C)C3CC=C4[C@@H](CC[C@H](O[C@@H]5OC(CO[C@@H]6OC(CO)[C@@H](O)[C@H](O)C6O)[C@@H](O)[C@H](O)C5O)C4(C)C)[C@]3(C)[C@H](O)C[C@]12C (stereo partly drawn) [CC-00367, mogro-3-O-[β-D-glucopyranosyl (1→6)-β-D-glucopyranoside]-24-O-{[(β-D-glucopyranosyl-(1→4))-β-D-glucopyranosyl-(1→2)]-[β-D-glucopyranosyl-(1→6)]-β-D-glucopyranoside}]	1.4 B	4.9 B	1.3 B	3.8 B	2.6 B	2.2 B	–	–	–	–	–	–	–	–	–	–	–	–
C[C@H](CC[C@@H](O[C@@H]1O[C@H](CO[C@@H]2O[C@H](CO[C@@H]3O[C@H](CO)[C@@H](O)[C@H](O)[C@H]3O)[C@@H](O)[C@H](O)[C@H]2O)[C@@H](O)[C@H](O)[C@H]1O[C@@H]1O[C@H](CO)[C@@H](O)[C@H](O)[C@H]1O)C(C)(C)O)[C@H]1CC[C@@]2(C)[C@@H]3CC=C4[C@@H](CC[C@H](O[C@@H]5O[C@H](CO[C@@H]6O[C@H](CO)[C@@H](O)[C@H](O)[C@H]6O)[C@@H](O)[C@H](O)[C@H]5O)C4(C)C)[C@]3(C)[C@H](O)C[C@]12C [CC-00403]	–	–	–	–	–	–	2.6 ± 3.0	2.2 ± 3.4	5.0 ± 3.4	6.3 ± 1.4	3.1 ± 2.5	7.0 ± 1.5	–	–	–	–	–	–
C[C@H](CC[C@@H](O[C@@H]1OC(CO[C@@H]2OC(CO)[C@@H](O)[C@H](O)C2O)C(O)[C@@H](O)C1O[C@@H]1OC(CO)[C@@H](O)[C@H](O)C1O)C(C)(C)O)[C@H]1CC[C@@]2(C)C3CC=C4[C@@H](CC[C@H](O[C@@H]5OC(CO[C@@H]6OC(CO[C@H]7OC(CO)[C@@H](O)[C@H](O)C7O)[C@@H](O)[C@H](O)C6O)[C@@H](O)[C@H](O)C5O)C4(C)C)[C@]3(C)[C@H](O)C[C@]12C (stereo partly drawn) [CC-00436, mogro-3-O-[α-D-glucopyranosyl-(1→6)-β-D-glucopyranosyl (1→6)-β-D-glucopyranoside]-24-O-{[β-D-glucopyranosyl-(1→2)]-[β-D-glucopyranosyl-(1→6)]-β-D-glucopyranoside}]	–	–	–	–	–	–	–	–	–	–	–	–	1.5 ± 1.9	0.7 ± 0.8	2.1 ± 1.7	5.2 ± 2.1	2.9 ± 2.5	5.7 ± 2.1
C[C@H](CC[C@@H](O[C@@H]1O[C@H](CO[C@@H]2O[C@H](CO)[C@@H](O)[C@H](O)[C@H]2O)[C@@H](O)[C@H](O)[C@H]1O[C@@H]1O[C@H](CO)[C@@H](O)[C@H](O)[C@H]1O)C(C)(C)O)[C@H]1CC[C@@]2(C)[C@@H]3CC=C4[C@@H](CC[C@H](O[C@@H]5O[C@H](CO[C@@H]6O[C@H](CO)[C@@H](O)[C@H](O)[C@H]6O)[C@@H](O)[C@H](O)[C@H]5O)C4(C)C)[C@]3(C)[C@H](O)C[C@]12C [Mog V]	0.4	8.5	0.5	7.0	3.5	1.1	–	–	–	–	–	–	–	–	–	–	–	–
C=C1C[C@@]23CC[C@H]4[C@@](C)(CCC[C@@]4(C)C(=O)O[C@@H]4O[C@H](CO)[C@@H](O)[C@H](O[C@@H]5O[C@H](CO)[C@@H](O)[C@H](O)[C@H]5O)[C@H]4O[C@@H]4O[C@H](CO)[C@@H](O)[C@H](O)[C@H]4O)[C@@H]2CC[C@]1(O[C@@H]1O[C@H](CO)[C@@H](O)[C@H](O[C@@H]2O[C@H](CO)[C@@H](O)[C@H](O)[C@H]2O)[C@H]1O[C@@H]1O[C@H](CO)[C@@H](O)[C@H](O)[C@H]1O)C3 [Reb M 95%, rebaudioside M, reference compound]	1.7 B	9.2 A	1.0 B	8.0 A	5.3 A	2.0 B	–	–	–	–	–	–	–	–	–	–	–	–
OC[C@H]1O[C@@](CO)(O[C@H]2O[C@H](CO)[C@@H](O)[C@H](O)[C@H]2O)[C@@H](O)[C@@H]1O [Sucrose, sucrose, reference compound]	–	–	–	–	–	–	2.3 ± 2.3	0.8 ± 1.1	2.8 ± 2.1	7.2 ± 0.9	2.1 ± 1.8	7.4 ± 0.8	0.15 ± 0.2	0.1 ± 0.1	0.3 ± 0.3	4.3 ± 2.1	1.6 ± 1.8	4.5 ± 1.9
mogro-3-O-[β-D-glucopyranosyl (1→6)-β-D-glucopyranoside]-24-O-{[β-D-glucopyranosyl-(1→2)]-[(β-D-glucopyranosyl-(1β3))-β-D-glucopyranosyl-(1β6)]-β-D-glucopyranoside} [CC-00371]	1.5 B	9.3 A	0.9 B	7.5 A	5.8 A	2.1 B	–	–	–	–	–	–	–	–	–	–	–	–
